Results as given in ChEMBL document CHEMBL1149317, “Synthesis and in vitro antifolate activity of rotationally restricted aminopterin and methotrexate analogues” (J Med Chem, 2004).

Columns and labels:
[1] = biological target: T1, Dihydrofolate reductase (Homo sapiens, UniProt P00374); assay: Inhibition of human DHFR
T1 sequence (P00374 whole entry): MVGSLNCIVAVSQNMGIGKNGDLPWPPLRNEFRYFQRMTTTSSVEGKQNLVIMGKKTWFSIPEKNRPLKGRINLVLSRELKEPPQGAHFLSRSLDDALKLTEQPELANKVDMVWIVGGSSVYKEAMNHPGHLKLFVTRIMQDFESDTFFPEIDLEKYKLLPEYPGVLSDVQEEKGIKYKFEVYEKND

[2] = biological target: T2, Reduced folate transporter (Homo sapiens, UniProt P41440); assay: Inhibition of RFC-mediated [3H]MTX influx into human CCRF-CEM cells; type: cell-based
T2 sequence (P41440 whole entry): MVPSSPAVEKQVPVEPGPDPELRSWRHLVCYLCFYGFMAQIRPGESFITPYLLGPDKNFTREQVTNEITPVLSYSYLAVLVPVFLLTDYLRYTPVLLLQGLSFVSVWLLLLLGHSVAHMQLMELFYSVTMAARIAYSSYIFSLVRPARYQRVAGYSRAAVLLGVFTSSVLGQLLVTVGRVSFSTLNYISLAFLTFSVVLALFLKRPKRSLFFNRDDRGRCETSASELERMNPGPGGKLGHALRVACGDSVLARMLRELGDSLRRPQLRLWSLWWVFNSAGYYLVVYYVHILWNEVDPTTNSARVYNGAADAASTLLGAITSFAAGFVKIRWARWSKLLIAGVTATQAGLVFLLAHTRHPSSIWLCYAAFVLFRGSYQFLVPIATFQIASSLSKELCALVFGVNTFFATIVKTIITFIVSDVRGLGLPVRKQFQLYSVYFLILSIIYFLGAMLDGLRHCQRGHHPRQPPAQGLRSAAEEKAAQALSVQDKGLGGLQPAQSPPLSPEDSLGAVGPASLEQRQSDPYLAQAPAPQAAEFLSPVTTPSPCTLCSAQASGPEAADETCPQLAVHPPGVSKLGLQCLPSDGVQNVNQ

[3] = system: CCRF-CEM; assay: Growth inhibition of human CCRF-CEM cells after 72 hrs; type: functional, cell-based

Structure (SMILES) | Ki [1] [nM] | Ki [2] [nM] | IC50 [3] [nM]
CN(Cc1cnc2nc(N)nc(N)c2n1)c1ccc2c(c1)CN([C@@H](CCC(=O)O)C(=O)O)C2=O | 2.1 | 1100 | 140
Nc1nc(N)c2nc(CNc3ccc4c(c3)CN([C@@H](CCC(=O)O)C(=O)O)C4=O)cnc2n1 | 0.034 | 280 | 5.1
Nc1nc(N)c2nc(CNc3ccc4c(c3)CN(C(CCC(=O)O)C(=O)O)C4=O)cnc2n1 (racemic) | 0.077 | 530 | 8.4
